From US20250115595A1, “INHIBITORS OF HYPOXIA-INDUCIBLE FACTORS” (The Johns Hopkins University, priority 2021, published 2025)

Experiments:
Format in all cases: cell-based, human
[1] = test system: HIF target genes; assay: RT-qPCR of HIF target gene expression in Hep3B cells
Experimental: Based on hit compound 11-88, a number of analogs were prepared in which either halogen substitutions to the indole groups were altered or the central thiazole was replaced by imidazole, isoxazole, oxadiazole, oxazole, pyrazinone, pyridazine, pyrazine, pyrazole, pyridine, thiadiazole, triazine, or triazole. […] The bis-bromoindole thiazole 32-134D and the bis-indole thiadiazole 33-063 (FIGS. 1B and 1C) were further characterized with respect to endogenous HIF target gene expression in Hep3B cells. […] For comparison, we tested the effect of PT2385, which inhibited EPO, NDRG1, ANGPTL4, and VEGFA expression but had no effect on CA9, which is consistent with its HIF-2-selective mechanism of action (Wallace E M et al., Cancer Res. 2016; 76(18):5491-5500). None of the compounds had any effect on RPL13A expression, which is neither hypoxia-induced nor HIF-regulated (FIG. 3).
Human Hep3B and mouse Hepa1-6 cells were purchased from ATCC and grown in high-glucose (4.5 mg/ml) Dulbecco's modified Eagle's medium supplemented with 10% (vol/vol) fetal bovine serum and […] at 37° C. in a 5% CO2/95% air incubator (20% O2). Human cell line identity was authenticated by analysis of short tandem repeats, and all cell lines were maintained mycoplasma free, using PCR-based assays conducted at the Johns Hopkins University Genetic Resources Core Facility. Cells were subjected to hypoxia in a controlled atmosphere chamber (PLAS Labs) with ambient gas mixture containing 1% O2 and 5% CO2.
RNA was extracted using TRIzol Reagent (ThermoFisher). Quantitative Real-time PCR was conducted using SYBR Green PCR Master Mix (BioRad) and reactions were run using the BioRad thermal cycler (BioRad). The mRNA expression of target genes was normalized to the expression of 18S rRNA and the fold change (FC) was calculated based on the threshold cycle (Ct) as
FC=2^−Δ(ΔCt) where ΔCt=Cttarget gene−Ct18S rRNA and Δ(ΔCt)=ΔCttreatment−ΔCtcontrol.

[2] = test system: HIF-1α and HIF-2α; assay: Immunoblot of HIF-1α and HIF-2α accumulation in hypoxic MIO-M1 cells; conditions: as little as 1 μM, 4 hours
Experimental: It has previously been reported that the cells in the inner nuclear layer of the retina that express VEGF in response to hypoxia/ischemia are Müller glial cells (X. Xin et al., Proc Natl Acad Sci USA 110, E3425-3434 (2013)). […] The effects of 32-134D on HIF-1α accumulation persisted up to 16 hours after treatment of cultured cells (FIG. 27B).
Cells culture and reagents: MIO-M1 cells were a gift from Dr. Astrid Limb (University College London, Institute of Ophthalmology, London, United Kingdom). MIO-M1 and HUVEC cells were cultured in DMEM with 10% (vol/vol) FBS (Quality Biological) and 1% penicillin/streptomycin (Cellgro). Hypoxia chambers were used to expose cells. Evans Blue (E2129) was purchased from Sigma-Aldrich.
Immunoblot assays and ELISAs: Cell, neurosensory retina, and D120 retinal organoid lysates were subjected to 4-15% gradient SDS/PAGE (Invitrogen). Immunoblot assays were performed as previously described (X. Xin et al., 2013, Proc Natl Acad Sci USA 110, E3425-3434).

[3] = test system: HIF-1α and HIF-2α; assay: HIF accumulation in hypoxic D120 hiPSC-derived retinal organoids; conditions: 1% O2, 12 hours
Experimental: To assess the therapeutic potential of 32-134D for diabetic patients, human induced pluripotent stem cell (hiPSC)-derived 3-dimensional (3D) retinal organoids were treated with 32-134D. It has been previously reported that hiPSC-derived 3D retinal organoids cultured under hypoxic conditions (1% O2) behave similar to ischemic human retinal tissue with increased accumulation of both HIF-1α and HIF-2α (J. Zhang et al., J Clin Invest 131 (2021)). By 120 days of differentiation (D120), the inner and outer retinal layers are clearly defined (FIGS. 32A and 32B) and contain the precursors of the major retinal cell types, including outer retina photoreceptors (expressing recoverin), few newly differentiating bipolar cell precursors (lacking expression of recoverin and Pax6), amacrine cells (expressing high levels of Pax6), as well as Müller cells (expressing CRALBP; FIGS. 32C and 32D).
Retinal organoids: An hiPSC line derived from CD34+ cord blood was used in this study (A18945, ThermoFisher Scientific) (P. W. Burridge et al., 2011, PLoS One 6, e18293). Undifferentiated hiPSCs and derived retinal organoids were routinely tested for Mycoplasma contamination by PCR. Cell culture, retinal differentiation, and organoid formation were conducted as previously described (X. Zhong et al., 2014, Nat Commun 5, 4047). Retinal organoids at 120 days of differentiation were used for experiments. […]

Brc1ccc2c(-c3csc(-c4c[nH]c5c(Br)cccc45)n3)c[nH]c2c1 [Compound 32-134D, 4-(6-bromo-1H-indol-3-yl)-2-(7-bromo-1H-indol-3-yl)thiazole]
hypoxia-induced expression of HIF target genes CA9, ANGPTL4, VEGFA, NDRG1 and EPO [1]: inhibited
HIF-1α and HIF-2α protein accumulation in response to hypoxia [2]: decreased
accumulation of HIF-1α and HIF-2α protein [3]: effectively prevented
